Reference: patent US20060167106A1, “Compounds acting at the centrosome” (priority 2004, published 2006)
Entries after “also recorded” stand apart in the source; their conditions may differ.

Tests used:
[1] = test system: MDA-435 breast cancer cells; assay: Multi-ubiquitin Western blotting in MDA-435 cells; type: cell-based; conditions: for increase of ubiquitinated proteins of the cell lysates: 500 nM
Procedure: Louis, Mo.) immediately before use, on ice for 1 hour. After scraping, the lysates were cleared by centrifugation at 13,000 RPM for 10 minutes at 4° C. Protein content was determined using a Bradford assay and bovine serum albumin as a standard (Bio-Rad Laboratories, Hercules, Calif.). Samples were solubilized by boiling in SDS sample buffer and subjected to SDS-PAGE. The proteins were subsequently transferred to a PVDF membrane (Bio-Rad, Hercules, Calif.). […] The alkaline phosphatase-conjugated secondary antibodies (Invitrogen, Carlsbad, Calif.) were diluted in blocking buffer and incubated with the blot for 1 hour at room temperature. The secondary antibodies were detected by the Western Breeze Chemiluminescent Kit (Invitrogen, Carlsbad, Calif.) and imaged using a Kodak 440 Image Station. Proteins targeted for degradation by the ubiquitin-dependent proteolytic pathway are tagged with multi-ubiquitin molecules. […] In this assay, accumulation of multi-ubiquitinated proteins in the cells is indicative of the impairment of proteasome activity.

HeLa cells = assay: Oregon Green 488-Taxol localization in HeLa cells; type: cell-based; conditions: 0.5 μM Compound 1
Procedure: A fluorescent compound, Oregon Green 488-Taxol (Molecular Probes/Invitrogen), was utilized to determine the distribution of Taxol in CHO cells (FIG. 33). In addition, the targeting of fluorescent Taxol to centrosomes was examined in Compound 1-treated cells (FIG. 34). Non-transfected wild-type CHO cells and HeLa cells were cultured in 2-well chambered cover-slips for 24-48 hours before treatment. Oregon Green 488-Taxol stock solution was made with DMSO. […] Oregon Green 488-Taxol fluorescence in living cells or fixed cells was imaged using a standard filter for FITC with the Nikon TE300 microscope/digital imaging system.

CN(NC(=O)CC(=O)NN(C)C(=S)c1ccccc1)C(=S)c1ccccc1 [Compound 1]
accumulation of ubiquitinated proteins / level of proteasome inhibition compared with Velcade ([1]; 0.5 μM Compound 1 versus Velcade 500 nM (and 5 nM), Western blot): significantly less accumulation of ubiquitinated proteins in cultured cells than Velcade; also recorded: below that of the positive control | increase of ubiquitinated proteins of the cell lysates ([1]; 6 hours of treatment in cell culture): 210.03 | increase of ubiquitinated proteins of the cell lysates ([1]; 24 hours of treatment in cell culture): 243.11 | accumulation of multi-ubiquitinated proteins ([1]; MDA-435 cells, 0.5 μM, 6 and 24 hours): induced the accumulation of multi-ubiquitinated proteins | effect on the accumulation of Taxol (Oregon Green 488-Taxol) at centrosomes (HeLa cells): no effect on the accumulation of Taxol at centrosomes
